Measurements published in patent US10087233B2, “Coagulation factor VIII with reduced immunogenicity” (IMNATE SARL, priority 2012, dated 2018).

Legend:
human iNKT cells = experiment: Cell cluster formation of human iNKT cells with peptide-loaded U937 cells; assay type: cell-based; details: iNKT cells with loaded U937 cells 1:1, 2 weeks, IL-2; FIG. 5
Description: In order to establish whether human PBMC contained cells reacting with a CD1d-binding peptide epitope, invariant NKT (iNKT) cells were prepared from a buffy coat using magnetic beads coated with an antibody specific to the Valpha24-Jalpha18 chain of the T cell receptor (so-called invariant chain).
Said human iNKT cells (10^5/condition) were then incubated with mitomycine-C treated U937 cells (Ratio 1:1) loaded with 5 μg of either peptide encompassing aminoacid residues 188-204 of human factor VIII (SEQ ID NO: 5) or with control peptide (MHCII-MOG). Incubation was carried out for 2 weeks at 37° C. in RPMI containing 10% of fetal calf serum and 50 U/ml of human recombinant IL-2.
Culture plates were examined by eye for the presence of cell clusters. […] FIG. 5 illustrates the average of three microscopic field count of this observation (minimum 10 cells/cluster).

NKT cells [1] = experiment: Immunization with loaded JAWS2 cells, CD4+/CD8+ lineage of DX5/CD160 cells binding CD1d tetramers; assay type: in vivo, factor VIII KO mice
Description: To determine the cell lineage to which NKT cells belonged, an experiment was performed as described in Example 2. Thus, JAWS2 cells were loaded with either peptide of SEQ ID NO: 3, B-domain-deleted factor VIII, alpha-gal-ceramide or kept unloaded before intraperitoneal (IP) injection in factor VIII KO mice (2×10^6 cells per mouse). Five days after intraperitoneal injections, the mice were sacrificed and the splenocytes prepared. Cell suspensions were then reacted with CD1d tetramers unloaded or loaded with peptide of SEQ ID NO: 3 or with alpha-gal-ceramide.
For faccs analysis, cells binding CD1d tetramers were labeled with DX5- and CD160-specific antibodies and either anti-CD4 or anti-CD8 antibodies. The table summarizes the results.

CD1d tetramers = target: T1, CD1d tetramers (Mus musculus, UniProt P11609); experiment: CD1d tetramers loaded with peptide, detection of NKT cells among CD4+ spleen cells; assay type: binding; details: CD4+ spleen cells of naïve mice; FIG. 1
T1 construct: purchased ProImmune
T1 sequence (P11609 22-305 limits assumed): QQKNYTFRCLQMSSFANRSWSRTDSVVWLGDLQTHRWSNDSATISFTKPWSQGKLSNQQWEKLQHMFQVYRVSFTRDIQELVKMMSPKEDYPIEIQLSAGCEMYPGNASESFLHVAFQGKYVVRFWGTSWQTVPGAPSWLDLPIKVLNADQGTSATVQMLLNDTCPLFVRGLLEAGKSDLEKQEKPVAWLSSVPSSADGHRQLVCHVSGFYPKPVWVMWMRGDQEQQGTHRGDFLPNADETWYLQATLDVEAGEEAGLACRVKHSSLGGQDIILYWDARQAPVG
T1 sequence (P01887 21-119 partner): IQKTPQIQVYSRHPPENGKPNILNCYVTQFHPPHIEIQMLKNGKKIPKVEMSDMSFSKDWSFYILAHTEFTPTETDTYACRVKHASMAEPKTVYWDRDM
Description: A peptide encompassing SEQ ID NO: 1 was obtained by chemical synthesis. This peptide was used to load CD1d tetramers (ProImmune) by overnight incubation.
NKT cells were prepared from the spleen of naïve mice by depletion of all CD4(−) cells using magnetic beads.
CD4+ cells were then incubated with CD1d tetramers loaded by peptide of SEQ ID NO: 1 (P28 WT in FIG. 1), which corresponds to aminoacid sequence 190 to 209.

U937 cells = experiment: CD1d surface expression on U937 cells incubated with peptide (FACS); assay type: cell-based, human; details: as example 4; FIG. 6
Description: To determine whether human antigen-presenting cells had the capacity to process and present a peptide epitope in the context of the CD1d molecule, the human macrophage cell line U937 was used.
The percentage of resting U937 cells expressing CD1d is low as detected with a specific anti-CD1d antibody. It was reasoned that, if U937 cells were incubated with a peptide having the sequence motif enabling it to bind to CD1d, then this should be detectable by increased expression of CD1d at cell surface. As observed for peptides encompassing MHC class II epitopes, the binding of a peptide stabilizes the conformation of the molecule (class II, or CD1d in the present case), allowing the complex to be anchored at cell surface and reducing its intracellular recycling.
U937 cells (7×10^5 cells) were incubated for 24h at 37° C. with 5 μg of peptide encompassing CD1d binding motifs or controls. The cells were then washed and incubated with fluorescence-labeled antibodies specific to CD1d and the number of positive cells evaluated using a FACS system.
Controls include (from left to right) unloaded U937, cells incubated with alpha-gal-ceramide and a conventional class II-restricted epitope (MHCII-MOG). The experiment includes sequences of factor VIII of either human (SEQ ID NO: 5) or mouse (SEQ ID NO: 6) origin corresponding to aminoacids 188-204 of the factor VIII sequence. […]

NKT cells [2] = experiment: Immunization with JAWS2 cells loaded with peptide, tetramer detection of NKT cells in spleen; assay type: in vivo, factor VIII KO mice; details: tetramers loaded with peptide, FIG. 2
Description: JAWS2 cells express CD1d but not MHC class II determinants.
JAWS2 cells were incubated 2 h at 37° C. with peptide of SEQ ID NO: 1 (10 μg/ml) and thoroughly washed twice. Cells were then treated with mitomycin to block cell division and washed 4 times to eliminate mitomycin. A cell suspension containing 2×10^6 cells in physiological serum was injected by the intraperitoneal route in each of a series of 3 naïve factor VIII KO mice. As a control, 3 naïve factor VIII KO mice received the same number of JAWS2 cells which had not been incubated with peptide of SEQ ID NO: 1.
Five days after IP injection, the mice were sacrificed and their spleen prepared as above using magnetic beads to eliminate all CD4(−) cells.
CD4+ cells were then incubated with tetramers loaded with peptide of SEQ ID NO: 1.

[3] = mice given JAWS2 loaded with the labelled substance, tetramers loaded with Alpha-gal-cer
[4] = mice given JAWS2 loaded with the labelled substance, tetramers loaded with Peptide SEQ ID NO: 3
[5] = mice given JAWS2 loaded with the labelled substance, unloaded tetramers
[6] = mice given unloaded JAWS2 (natural repertoire), tetramers loaded with the labelled substance

| Compound | presence of cell clusters (clumps of cells) (human iNKT cells) | Number of DX5/CD160 cells, CD4+ (NKT cells [1]; [3]) | Number of DX5/CD160 cells, CD8+ (NKT cells [1]; [3]) | Number of DX5/CD160 cells, CD4+ (NKT cells [1]; [4]) | Number of DX5/CD160 cells, CD8+ (NKT cells [1]; [4]) | Number of DX5/CD160 cells, CD4+ (NKT cells [1]; [5]) | Number of DX5/CD160 cells, CD8+ (NKT cells [1]; [5]) | Number of DX5/CD160 cells, CD4+ (NKT cells [1]; [6]) | Number of DX5/CD160 cells, CD8+ (NKT cells [1]; [6]) | CD1d binding motif / NKT cells detected by peptide-loaded tetramers (in words) (CD1d tetramers) | also measured |
| --- | --- | --- | --- | --- | --- | --- | --- | --- | --- | --- | --- |
| CCCCCCCCCCCCCCCCCCCCCCCCCC(=O)N[C@@H](CO[C@H]1O[C@H](CO)[C@H](O)[C@H](O)[C@H]1O)[C@H](O)[C@H](O)CCCCCCCCCCCCCC [Alpha-gal-cer, alpha-gal-ceramide, reference compound] | to the same extent | 2.3 ×10^3 | 1.8 ×10^3 | 46 ×10^3 | 1.9 ×10^3 | 0.1 ×10^3 | 0 ×10^3 | 1.2 ×10^3 | 1.3 ×10^3 |  |  |
| AVFDEGKSWHS (homo sapiens) [SEQ ID NO: 4, human factor VIII 200-210] |  |  |  |  |  |  |  |  |  | limited though significant |  |
| KTQTLHKFILLFAVFDE (listed as Homo sapiens) [SEQ ID NO: 5, human factor VIII 188-204] | clumps of cells form |  |  |  |  |  |  |  |  |  |  |
| QTLHKFILLFA (homo sapiens) [SEQ ID NO: 3, human factor VIII 190-200] |  | 2.2 ×10^3 | 0.8 ×10^3 | 47 ×10^3 | 4.1 ×10^3 | 0.2 ×10^3 | 0.1 ×10^3 | 39 ×10^3 | 3.5 ×10^3 | major CD1d binding motif | expression of CD1d at the surface of U937 cells (in words) (U937 cells): did not increase |
| QTLHKFILLFAVFDEGKSWH (listed as Homo sapiens) [SEQ ID NO: 1, human factor VIII 190-209] |  |  |  |  |  |  |  |  |  |  | % of CD4+ T cells detected by CD1d tetramers loaded with peptide (CD1d tetramers): ~1%; proportion of NKT cells specific for peptide when peptide is presented by JAWS2 cells (NKT cells [2]; 5 days after IP injection of 2×10^6 peptide-loaded JAWS2 cells): 16%; proportion of NKT cells specific for peptide, natural repertoire (NKT cells [2]; control mice given JAWS2 cells not incubated with peptide): 8% |
